pIC50: −log10 of the molar value.
Key:
[1] = target: T1, hSOS1 (hSOS1-mediated nucleotide exchange of hK-RasG12C) (Homo sapiens, UniProt Q07889); experiment: Biochemical Assay 2: hK-RasG12C activation assay by hSOS1 at high GTP concentration (HTRF nucleotide exchange); details: high GTP (50 μM GTP)
T1 construct: hSOS1 (amino acid 564-1049); made in house; host or cells: E. coli BL21 (DE3)
T1 sequence (Q07889 with tags, fused parts or gaps): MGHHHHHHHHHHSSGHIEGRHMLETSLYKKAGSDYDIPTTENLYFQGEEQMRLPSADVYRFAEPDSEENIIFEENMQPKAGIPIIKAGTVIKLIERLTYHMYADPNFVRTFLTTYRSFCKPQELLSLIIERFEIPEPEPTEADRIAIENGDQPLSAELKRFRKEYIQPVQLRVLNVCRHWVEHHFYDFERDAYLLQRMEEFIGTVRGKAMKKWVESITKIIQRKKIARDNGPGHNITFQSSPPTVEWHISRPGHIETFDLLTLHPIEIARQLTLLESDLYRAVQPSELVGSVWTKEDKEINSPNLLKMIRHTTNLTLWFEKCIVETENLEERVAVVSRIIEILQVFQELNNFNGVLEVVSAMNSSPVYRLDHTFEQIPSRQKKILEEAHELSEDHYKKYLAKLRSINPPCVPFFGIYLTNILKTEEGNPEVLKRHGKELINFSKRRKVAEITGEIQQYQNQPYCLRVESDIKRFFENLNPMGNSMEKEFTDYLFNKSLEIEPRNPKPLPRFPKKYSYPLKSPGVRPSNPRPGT

[2] = target: T2, hK-RasG12C - hSOS1 interaction (Homo sapiens, UniProt Q07889); experiment: Biochemical Assay 1: hK-RasG12C interaction assay with hSOS1 (HTRF); format: binding; details: for pIC50: values expressed as IC50
T2 construct: hSOS1 (amino acid 564-1049); made in house; host or cells: E. coli BL21 (DE3)
T2 sequence (Q07889 with tags, fused parts or gaps): T1 sequence (Q07889 with tags, fused parts or gaps)
Procedure, shortened: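 HTRF signal between GST-hK-RasG12C (10 nM working solution, anti-GST-Eu) and His-hSOS1 (20 nM working solution, anti-6His-XL665) was read in HEPES pH 7.4 buffer with 10 mM EDTA, 1 mM DTT and 100 mM KF at 20 °C.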

SMILES	pIC50 [1]	pIC50 [2]	inhibition at 20 µM ([2]; read-out: Assay 1 (hKRAS, hSOS Interaction) activity (expressed as IC50, or as % inhibition at 20 μM))
Cc1nc(NC(C)c2ccc(-c3ccccc3CN(C)C)s2)c2cc(Oc3cccc(O)c3)ncc2n1 (stereo not shown) [Example 52, 3-[(4-{[1-(5-{2-[(dimethylamino)methyl]phenyl}thiophen-2-yl)ethyl]amino}-2-methylpyrido[3,4-d]pyrimidin-6-yl)oxy]phenol]	6.07	6.69	–
Cc1nc(NC(C)c2ccc(-c3ccccc3CN(C)C)s2)c2cc(NC3CCOCC3)ncc2n1 (stereo not shown) [Example 53, N4-[1-(5-{2-[(dimethylamino)methyl]phenyl}-2-thienyl)ethyl]-2-methyl-N6-(tetrahydro-2H-pyran-4-yl)pyrido[3,4-d]pyrimidine-4,6-diamine]	6.65	7.26	–
Cc1nc(NC(C)c2ccc(-c3ccccc3CN(C)C)s2)c2cc(NCCn3cccn3)ncc2n1 (stereo not shown) [Example 54, N4-[1-(5-{2-[(dimethylamino)methyl]phenyl}-2-thienyl)ethyl]-2-methyl-N6-[2-(1H-pyrazol-1-yl)ethyl]pyrido[3,4-d]pyrimidine-4,6-diamine]	6.79	7.30	–
Cc1nc(NC(C)c2ccc(-c3ccccc3CN(C)C)s2)c2cc(NCCn3ccnc3)ncc2n1 (stereo not shown) [Example 56, N4-[1-(5-{2-[(dimethylamino)methyl]phenyl}-2-thienyl)ethyl]-N6-[2-(1H-imidazol-1-yl)ethyl]-2-methylpyrido[3,4-d]pyrimidine-4,6-diamine]	7.03	7.40	–
COc1cc2c(N[C@H](C)c3cccc(Br)c3)nc(C)nc2cn1 [Example 57, N-[(1R)-1-(3-bromophenyl)ethyl]-6-methoxy-2-methylpyrido[3,4-d]pyrimidin-4-amine]	5.91	5.71	–
Cc1nc(NC(C)c2ccc(-c3ccccc3CN(C)C)s2)c2cc(Oc3cccc(C4=NCCN4C)c3)ncc2n1 (stereo not shown) [Example 58, N-[1-(5-{2-[(dimethylamino)methyl]phenyl}thiophen-2-yl)ethyl]-2-methyl-6-[3-(1-methyl-4,5-dihydro-1H-imidazol-2-yl)phenoxy]pyrido[3,4-d]pyrimidin-4-amine]	6.85	6.93	–
CSc1cc2c(NC(C)c3ccc(-c4ccccc4CN(C)C)s3)nc(C)nc2cn1 (stereo not shown) [Example 59, N-[1-(5-{2-[(dimethylamino)methyl]phenyl}thiophen-2-yl)ethyl]-2-methyl-6-(methylsulfanyl)pyrido[3,4-d]pyrimidin-4-amine]	7.17	7.18	–
CC(=O)NCCOc1cc2c(N[C@H](C)c3cccc(Br)c3)nc(C)nc2cn1 [Example 62, N-{2-[(4-{[(1R)-1-(3-bromophenyl)ethyl]amino}-2-methylpyrido[3,4-d]pyrimidin-6-yl)oxy]ethyl}acetamide]	6.35	6.54	–
CCOc1cc2c(NC(C)c3ccc(-c4ccccc4CN(C)C)s3)nc(C)nc2cn1 (stereo not shown) [Example 63, N-[1-(5-{2-[(dimethylamino)methyl]phenyl}thiophen-2-yl)ethyl]-6-ethoxy-2-methylpyrido[3,4-d]pyrimidin-4-amine]	7.55	7.36	–
COc1cc2c(NC(C)c3ccc(-c4ccccc4CN(C)C)s3)nc(C)nc2cn1 (stereo not shown) [Example 64, N-[1-(5-{2-[(dimethylamino)methyl]phenyl}thiophen-2-yl)ethyl]-6-methoxy-2-methylpyrido[3,4-d]pyrimidin-4-amine]	7.20	7.23	–
Cc1nc(NC(C)c2ccc(-c3ccccc3CN(C)C)s2)c2cc(OC3CCS(=O)(=O)CC3)ncc2n1 (stereo not shown) [Example 67, N-[1-(5-{2-[(dimethylamino)methyl]phenyl}thiophen-2-yl)ethyl]-6-[(1,1-dioxidotetrahydro-2H-thiopyran-4-yl)oxy]-2-methylpyrido[3,4-d]pyrimidin-4-amine]	7.58	7.38	–
Cc1nc(NC(C)c2ccc(-c3ccccc3CO)s2)c2cc(F)ncc2n1 (stereo not shown) [Example 68, [2-(5-{1-[(6-fluoro-2-methylpyrido[3,4-d]pyrimidin-4-yl)amino]ethyl}thiophen-2-yl)phenyl]methanol]	< 4.70	–	43.8%
Cc1nc(N[C@H](C)c2cccc(Br)c2)c2cc(OCCCN(C)C)ncc2n1 [Example 70, N-[(1R)-1-(3-bromophenyl)ethyl]-6-[3-(dimethylamino)propoxy]-2-methylpyrido[3,4-d]pyrimidin-4-amine]	6.02	6.39	–
Cc1nc(NC(C)c2ccc(-c3ccccc3CN(C)C)s2)c2cc(N3CCC3)ncc2n1 (stereo not shown) [Example 71, 6-(azetidin-1-yl)-N-[1-(5-{2-[(dimethylamino)methyl]phenyl}thiophen-2-yl)ethyl]-2-methylpyrido[3,4-d]pyrimidin-4-amine]	7.26	7.29	–
Cc1nc(NC(C)c2ccc(-c3ccccc3CN(C)C)s2)c2cc(OCCCN(C)C)ncc2n1 (stereo not shown) [Example 72, N-[1-(5-{2-[(dimethylamino)methyl]phenyl}thiophen-2-yl)ethyl]-6-[3-(dimethylamino)propoxy]-2-methylpyrido[3,4-d]pyrimidin-4-amine]	7.38	7.47	–
Cc1nc(NC(C)c2ccc(-c3ccccc3CN(C)C)s2)c2cc(OCC3CC3)ncc2n1 (stereo not shown) [Example 73, 6-(cyclopropylmethoxy)-N-[1-(5-{2-[(dimethylamino)methyl]phenyl}thiophen-2-yl)ethyl]-2-methylpyrido[3,4-d]pyrimidin-4-amine]	6.89	7.02	–
Cc1nc(NC(C)c2ccc(-c3ccccc3CN(C)C)s2)c2cc(OCCO)ncc2n1 (stereo not shown) [Example 74, 2-[(4-{[1-(5-{2-[(dimethylamino)methyl]phenyl}thiophen-2-yl)ethyl]amino}-2-methylpyrido[3,4-d]pyrimidin-6-yl)oxy]ethanol]	7.03	7.26	–
Cc1nc(N[C@H](C)c2cccc(Br)c2)c2cc(OCC3CC3)ncc2n1 [Example 75, N-[(1R)-1-(3-bromophenyl)ethyl]-6-(cyclopropylmethoxy)-2-methylpyrido[3,4-d]pyrimidin-4-amine]	5.50	5.38	–
Cc1nc(NC(C)c2ccc(-c3ccccc3CN(C)C)s2)c2cc(OCCCO)ncc2n1 (stereo not shown) [Example 76, 3-[(4-{[1-(5-{2-[(dimethylamino)methyl]phenyl}thiophen-2-yl)ethyl]amino}-2-methylpyrido[3,4-d]pyrimidin-6-yl)oxy]propan-1-ol]	7.30	7.34	–
Cc1nc(NC(C)c2ccc(-c3ccccc3CN(C)C)s2)c2cc(OC3CCS(=N)(=O)CC3)ncc2n1 (stereo not shown) [Example 77, N-[1-(5-{2-[(dimethylamino)methyl]phenyl}-2-thienyl)ethyl]-6-[(1-imino-1-oxidohexahydro-1lambda4-thiopyran-4-yl)oxy]-2-methylpyrido[3,4-d]pyrimidin-4-amine]	7.23	7.30	–
Cc1nc(N[C@H](C)c2cccc(Br)c2)c2cc(OCCN(C)C)ncc2n1 [Example 78, N-[(1R)-1-(3-bromophenyl)ethyl]-6-[2-(dimethylamino)ethoxy]-2-methylpyrido[3,4-d]pyrimidin-4-amine]	5.98	5.89	–
Cc1nc(N[C@H](C)c2cccc(Br)c2)c2cc(NCCS(C)(=O)=O)ncc2n1 [Example 83]	5.87	6.24	–
Cc1nc(N[C@H](C)c2cccc(Br)c2)c2cc(NCCn3ccnc3)ncc2n1 [Example 84, N4-[(1R)-1-(3-bromophenyl)ethyl]-N6-[2-(1H-imidazol-1-yl)ethyl]-2-methylpyrido[3,4-d]pyrimidine-4,6-diamine]	5.99	6.29	–
Cc1nc(NC(C)c2ccc(-c3ccccc3CN(C)C)s2)c2cc(NCC3CCNC(=O)C3)ncc2n1 (stereo not shown) [Example 86, 4-{[(4-{[1-(5-{2-[(dimethylamino)methyl]phenyl}thiophen-2-yl)ethyl]amino}-2-methylpyrido[3,4-d]pyrimidin-6-yl)amino]methyl}piperidin-2-one]	6.90	6.92	–
Cc1nc(NC(C)c2ccc(-c3ccccc3CN(C)C)s2)c2cc(N3CC(NC(=O)CCCn4c(-c5ccccn5)nc(C)c4C)C3)ncc2n1 (stereo not shown) [Example 87, N-[1-(4-{[1-(5-{2-[(dimethylamino)methyl]phenyl}thiophen-2-yl)ethyl]amino}-2-methylpyrido[3,4-d]pyrimidin-6-yl)azetidin-3-yl]-4-[4,5-dimethyl-2-(pyridin-2-yl)-1H-imidazol-1-yl]butanamide]	6.62	7.15	–
Cc1nc(NC(C)c2ccc(-c3ccccc3CN(C)C)s2)c2cc(N3CC(NC(=O)c4ccccc4)C3)ncc2n1 (stereo not shown) [Example 88, N-[1-(4-{[1-(5-{2-[(dimethylamino)methyl]phenyl}thiophen-2-yl)ethyl]amino}-2-methylpyrido[3,4-d]pyrimidin-6-yl)azetidin-3-yl]benzamide]	6.79	7.23	–

Source: patent US20220274979A1 (Bayer Pharma Aktiengesellschaft, priority 2018, published 2022)
